The test relates to pseudotyped SARS-CoV-2 virus. It counts as cell-based.
For “DISGINASVVNIQK8IDRLNEXAKNLNESLIDLQELGK [SEQ ID NO: 11]”, the differential antiviral activity result is listed as “little to no activity”.
With “DISGINASVVNIQKEI8RLNEVAXNLNESLIDLQELGK [SEQ ID NO: 13]” the entry was “moderate activity”.
With “DISGINASVVNIQKEID8LNEVAKXLNESLIDLQELGK [SEQ ID NO: 14]” the entry was “little to no activity”; with “DISGINASVVNIQKEIDR8NEVAKNXNESLIDLQELGK [SEQ ID NO: 15]”, “little to no activity”.
Take “DISGINASVVNIQKEIDRL8EVAKNLXESLIDLQELGK [SEQ ID NO: 16]”: the differential antiviral activity result is given as “moderate activity”.

Source of the values: US20250084128A1, “ANTIVIRAL […]-STAPLED SARS-CoV-2 PEPTIDE-C[…] USES THEREOF” (priority 2021, published 2025).
